Experiments:
Format in all cases: in vivo
Ipomoea purpurea [1] = assay: Post-emergence herbicidal action against harmful plants; conditions: 80 g/ha, visual score after about 3 weeks vs untreated controls
Procedure: (§1) Seeds of monocotyledonous and dicotyledonous weed and crop plants are laid out in sandy loam in wood-fiber pots, covered with soil and cultivated in a greenhouse under good growth conditions. 2 to 3 weeks after sowing, the trial plants are treated at the one-leaf stage. The compounds of the invention, formulated in the form of wettable powders (WP) or as emulsion concentrates (EC), are then sprayed onto the green parts of the plants in the form of an aqueous suspension or emulsion at a water application rate equating to 600 to 800 I/ha, with addition of 0.2% wetting agent. After the trial plants have been left to stand in a greenhouse under optimal growth conditions for about 3 weeks, the efficacy of the formulations is scored visually in comparison to untreated controls (herbicidal action in percent (%): 100% efficacy=the plants have died, 0% efficacy=like control plants). In this trial, for example, compound no.

Viola tricolor [2] = assay: as above; conditions: 80 g/ha, visual score after about 3 weeks vs untreated controls
Procedure: as §1

Veronica persica [3] = assay: as above; conditions: 80 g/ha, visual score after about 3 weeks vs untreated controls
Procedure: as §1

Abutilon theophrasti [4] = assay: as above; conditions: 80 g/ha, visual score after about 3 weeks vs untreated controls
Procedure: as §1

Stellaria media [5] = assay: as above; conditions: 80 g/ha, visual score after about 3 weeks vs untreated controls
Procedure: as §1

Ipomoea purpurea [6] = assay: Pre-emergence herbicidal action against harmful plants; conditions: 320 g/ha, visual score after 3 weeks vs untreated controls
Excerpt: (§2) Seeds of monocotyledonous and dicotyledonous weed plants and crop plants are laid out in wood-fiber pots in sandy loam and covered with soil. The compounds of the invention, formulated in the form of wettable powders (WP) or as emulsion concentrates (EC), are then applied to the surface of the covering soil in the form of an aqueous suspension or emulsion at a water application rate equating to 600 to 800 l/ha, with addition of 0.2% wetting agent. After the treatment, the pots are placed in a greenhouse and kept under good growth conditions for the trial plants. The damage to the trial plants is scored visually after a trial duration of 3 weeks by comparison with untreated controls (herbicidal activity in percent (%): 100% efficacy=the plants have died, 0% efficacy=like control plants). In this trial, for example, compound no.

Viola tricolor [7] = assay: as above; conditions: 320 g/ha, visual score after 3 weeks vs untreated controls
Excerpt: as §2

Amaranthus retroflexus = assay: as above; conditions: 320 g/ha, visual score after 3 weeks vs untreated controls
Excerpt: as §2

Veronica persica [8] = assay: as above; conditions: 320 g/ha, visual score after 3 weeks vs untreated controls
Excerpt: as §2

Abutilon theophrasti [9] = assay: as above; conditions: 320 g/ha, visual score after 3 weeks vs untreated controls
Excerpt: as §2

Cyperus esculentus = assay: as above; conditions: 320 g/ha, visual score after 3 weeks vs untreated controls
Excerpt: as §2

Stellaria media [10] = assay: as above; conditions: 320 g/ha, visual score after 3 weeks vs untreated controls
Excerpt: as §2

Cn1ncc(-c2ccc(C(F)(F)F)c(=O)n2C)c(O)c1=O [1-4, 4-hydroxy-2-methyl-5-(1-methyl-3-(trifluoromethyl)pyrid-2-on-6-yl)-pyridazin-3-one]
at least 80%: herbicidal action in percent (efficacy) (Ipomoea purpurea [1]) | herbicidal action in percent (efficacy) (Viola tricolor [2]) | herbicidal action in percent (efficacy) (Veronica persica [3]) | herbicidal action in percent (efficacy) (Abutilon theophrasti [4]) | herbicidal action in percent (efficacy) (Stellaria media [5]) | herbicidal activity in percent (efficacy) (Ipomoea purpurea [6]) | herbicidal activity in percent (efficacy) (Viola tricolor [7]) | herbicidal activity in percent (efficacy) (Amaranthus retroflexus) | herbicidal activity in percent (efficacy) (Veronica persica [8]) | herbicidal activity in percent (efficacy) (Abutilon theophrasti [9]) | herbicidal activity in percent (efficacy) (Cyperus esculentus) | herbicidal activity in percent (efficacy) (Stellaria media [10])

— patent US20160272613A1, “Pyridazinone Derivatives and their use as Herbicides” (BAYER CROPSCIENCE AKTIENGESELLSCHAFT, priority 2013, published 2016)
